The text below walks through data of article PMC5046141, “Discovery of Isoquinolinoquinazolinones as a Novel Class of Potent PPARγ Antagonists with Anti-adipogenic Effects” (Scientific Reports, 2016).

pIC50: −log10 of the molar value.

For one series, the target named is T1, PPARγ2 (Mus musculus, UniProt P37238).
T1 construct: expressed in transfected cells; host or cells: 3T3-L1 (mouse preadipocytes), pCS4 CMV vector
T1 sequence (P37238 1-505): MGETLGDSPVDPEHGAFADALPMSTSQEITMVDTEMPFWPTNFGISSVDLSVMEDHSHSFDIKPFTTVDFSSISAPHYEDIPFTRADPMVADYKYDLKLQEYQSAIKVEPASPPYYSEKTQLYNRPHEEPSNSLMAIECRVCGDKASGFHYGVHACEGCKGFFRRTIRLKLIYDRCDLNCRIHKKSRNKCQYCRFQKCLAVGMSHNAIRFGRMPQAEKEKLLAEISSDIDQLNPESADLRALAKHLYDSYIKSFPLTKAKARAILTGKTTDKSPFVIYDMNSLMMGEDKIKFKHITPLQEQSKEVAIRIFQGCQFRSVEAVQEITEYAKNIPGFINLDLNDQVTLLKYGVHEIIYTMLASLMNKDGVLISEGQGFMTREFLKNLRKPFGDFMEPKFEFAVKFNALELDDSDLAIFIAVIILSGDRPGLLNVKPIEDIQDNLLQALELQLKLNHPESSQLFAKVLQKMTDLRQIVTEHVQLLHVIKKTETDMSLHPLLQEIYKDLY
Put plainly: PPRE-Luc luciferase reporter assay of PPARγ2-induced transcriptional activity in 3T3-L1 cells. Format: cell-based. How it is done:
To analyze whether isoquinolinoquinazolinones inhibit the transactivation of PPARγ, 3T3-L1 cells were cotransfected with full-length PPARγ2 expression vector with a peroxisome proliferator response element (PPRE)-driven luciferase reporter gene (PPRE-Luc) that has been reported to respond to PPARγ[23][24]. […] Titration curves were generated using Graph Pad Prism®, and the IC50 value of each compound with respect to PPARγ2-induced transcriptional activity was determined.
The transcription activity was determined in 3T3-L1 cells transiently co-transfected with PPRE-driven luciferase reporter gene (PPRE-Luc) and PPARγ2 expression vector. […] After 24 h of transfection, the cells were cultured with indicated combination for 12 h. Luciferase activity was measured after 36 h.
For plasmids expressing PPARγ2, full length PPARγ2 (mouse, 1518 bp: NCBI Reference Sequence: NP_035276.2) was subcloned into CMV promoter-derived mammalian expression vector (pCS4). Plasmids for C285G, R288G mutant PPARγ2 were generated by PCR-based site-directed mutagenesis and also subcloned into CMV promoter-derived mammalian expression vector (pCS4).
3T3-L1 cells were transfected for indicated combinations of expression plasmids along with a luciferase reporter plasmid (PPRE-Luc). PPRE-Luc contains the consensus PPAR responsive element (PPRE). pCMV-β-gal was co-transfected for normalization of transfection efficiency. 24 h after transfection, cells were treated with indicated compounds for 12 h. Luciferase activities were measured using a luciferase reporter assay kit (Promega, Madison, WI, USA). Experiments were performed in triplicate and repeated at least three times.

Another series relates to 3T3-L1 preadipocytes. Put plainly: Oil Red O staining assay of adipocyte differentiation. Type of series: cell-based, mouse. Particulars: for inhibition at 25 µM: Mus musculus, 3T3-L1, relative absorbance from Oil Red O staining at 25 μM, read-out: Inhibitory activity (%) on adipocyte differentiation. How it is done: The GW9662-mediated inhibition of PPARγ was confirmed using an Oil Red O staining assay to measure adipocyte differentiation. To investigate whether the novel compounds could inhibit adipocyte differentiation, 3T3-L1 preadipocytes were incubated with differentiation medium (MDI; insulin, dexamethasone, and isobutyl methyl xanthine) in the presence of increasing concentrations of isoquinolinoquinazolinones. Adipogenesis was analyzed using Oil Red O staining after treatment with the compounds.
The mouse preadipocyte cell line 3T3-L1 was maintained at 37 °C in humidified air with 5% CO2. 3T3-L1 cells were cultured in Dulbecco’s modified Eagle medium (DMEM; Life Technologies) supplemented with 10% bovine serum (BS; Gibco Invitrogen, Carlsbad, California, USA) as growth medium. For adipocyte differentiation, cells were cultured for 2 days to full confluence in a 24-well plate and the growth medium was then replaced (day 0) with DMEM supplemented with 10% fetal bovine serum (FBS, Gibco Invitrogen, Carlsbad, California, USA), 5 μg/mL insulin (Sigma, St. Louis, Missouri, USA), 0.5 mM 3-isobutyl-1-methylxanthine (Sigma), and 1 μM dexamethasone (Sigma). After 48 h, the differentiation medium was replaced (day 2) with DMEM + 10% FBS containing 5 μg/mL insulin, and the cells were allowed to accumulate lipid droplets until experimental use.
The accumulation of lipids signifying the formation of adipocytes was observed by staining the differentiated cells with Oil Red O. Following differentiation, cells were washed twice with phosphate-buffered saline (PBS), fixed with 10% formalin for 60 min. Oil Red O stock solution (0.5%) was prepared in isopropanol and filtered in cellulose nitrate filters. Cells were stained with Oil Red O diluted 6:4 in water for 1 h at room temperature. Excess Oil Red O dye was washed off twice with distilled water and then dried. The stained lipid droplets within cells were visualized using an optical microscope and photographed with a digital camera at 100× magnification.

As to `CN(CCOc1ccc(CC2SC(=O)NC2=O)cc1)c1ccccn1` (stereo not shown) [Rosiglitazone], the “increase of luciferase expression” value at PPARγ2 (rosiglitazone treatment, PPRE-Luc) was “up to 3 fold”.

As to `COc1ccc2c(=O)n3c(cc2c1)-c1ccc(Cl)cc1NC3` [Compound 8l], the melting point (commonly the temperature, or range, at which the solid turns liquid) fell in the range of 213.6 to 215.1 °C. For the same compound, in the series with 3T3-L1 preadipocytes, the inhibition at 25 µM worked out at 39.1%.

In turn, `COc1ccc2c(=O)n3c(cc2c1)-c1ccccc1NC3` [Compound 8k] had a melting point of 145.4 to 148 °C. Besides, the inhibition at 25 µM in the series with 3T3-L1 preadipocytes came to 56.1%.

For the compound `Cc1cccc2c(=O)n3c(cc12)-c1ccccc1OC3` [Compound 10a], the inhibition at 25 µM in the series on 3T3-L1 preadipocytes came out at 23.6%.

`Cc1ccc2c(=O)n3c(cc2c1)-c1ccccc1NC3` [Compound 8d] gave a melting point of 119.1 to 120.4 °C. Besides, in the series on 3T3-L1 preadipocytes, the inhibition at 25 µM was 53.9%.

Compound `Cc1ccc2cc3n(c(=O)c2c1)CNc1ccccc1-3` [Compound 8f] yielded a melting point of 213.2 to 214.5 °C. Further, the inhibition at 25 µM with 3T3-L1 preadipocytes is 28.6%.

Turning to `Cc1cc2cc3n(c(=O)c2cc1C)CNc1ccccc1-3` [Compound 8h], the melting point fell in the range of 212.7 to 214.2 °C. The inhibition at 25 µM with 3T3-L1 preadipocytes came out at 41.6%.

On to `COc1ccc2c(=O)n3c(cc2c1OC)-c1ccccc1OC3` [Compound 10d], for which the inhibition at 25 µM with 3T3-L1 preadipocytes was 62.5%.

Take `Cc1cccc2c(=O)n3c(cc12)-c1cc(Cl)ccc1NC3` [Compound 8c]: the melting point lay in the range of 240.5 to 242.1 °C. In addition, in the series with 3T3-L1 preadipocytes, the inhibition at 25 µM was found to be 30.9%.

Regarding `Cc1cc2cc3n(c(=O)c2cc1C)CNc1ccc(Cl)cc1-3` [Compound 8i], the melting point was in the range of 268.7 to 270.6 °C. In addition, in the series on 3T3-L1 preadipocytes, the inhibition at 25 µM worked out at 49.8%.

Regarding `Cc1ccc2cc3n(c(=O)c2c1)COc1cc2c(cc1-3)OCO2` [Compound 10g], the inhibition at 25 µM with 3T3-L1 preadipocytes worked out at 40.9%.

On to `Cc1ccc2c(=O)n3c(cc2c1)-c1ccc(Cl)cc1NC3` [Compound 8e], for which the melting point was in the range of 210 to 211.5 °C. Also, in the series with 3T3-L1 preadipocytes, the inhibition at 25 µM came to 63.3%.

On to “6,8-Dihydro-5H-isoquinolino[2,3-c]quinazoline [Compound 9]”, for which the “Inhibitory activity (%) on adipocyte differentiation” value with 3T3-L1 preadipocytes (relative absorbance from Oil Red O staining at 25 μM) stood at 62.5%.

Turning to `Cc1ccc2c(=O)n3c(cc2c1)-c1cc2c(cc1OC3)OCO2` [Compound 10f], the inhibition at 25 µM with 3T3-L1 preadipocytes was 30.5%.

Take `Cc1ccc2cc3n(c(=O)c2c1)CNc1ccc(Cl)cc1-3` [Compound 8g]: the melting point was in the range of 202.6 to 205.1 °C. In the series on 3T3-L1 preadipocytes, the inhibition at 25 µM came out at 42.4%.

Take `Cc1cccc2c(=O)n3c(cc12)-c1cc2c(cc1OC3)OCO2` [Compound 10e]: the inhibition at 25 µM in the series on 3T3-L1 preadipocytes turned out to be 44.8%.

With `Cc1cc2cc3n(c(=O)c2cc1C)COc1cc2c(cc1-3)OCO2` [Compound 10h], in the series with 3T3-L1 preadipocytes, the inhibition at 25 µM worked out at 38.8%.

The compound `O=c1c2ccccc2cc2n1CNc1ccccc1-2` [Compound 8a, 5H-Isoquinolino[2,3-c]quinazolin-8(6H)-one] returned a melting point of 204.3 to 206.3 °C. In the series with 3T3-L1 preadipocytes, the inhibition at 25 µM is 53%.

For the compound `COc1ccc2cc3[n+](cc2c1OC)CCc1cc2c(cc1-3)OCO2` [Berberine], the inhibition at 25 µM in the series with 3T3-L1 preadipocytes was determined as 71.4%. Further, the “inhibition of PPARγ2 transfection (transcriptional activity), with rosiglitazone stimulation” value at PPARγ2 (5 μM, with rosiglitazone) is on record as 40%. Also, the “inhibition of PPARγ2 transfection (transcriptional activity), compound alone” value on PPARγ2 (5 μM, without rosiglitazone) came out at 33%. For the same compound, at PPARγ2 (3T3-L1 cotransfected with PPARγ2 and PPRE-Luc, read-out: IC50 with respect to PPARγ2-induced transcriptional activity), the pIC50 (as a rule, the IC50 on a negative log10 scale, so that one unit is a factor of ten) is 5.18.

Take `Cc1cc2cc3n(c(=O)c2cc1C)CNc1cc(Cl)ccc1-3` [Compound 8j]: the melting point fell in the range of 235.1 to 236.4 °C. Also, in the series on 3T3-L1 preadipocytes, the inhibition at 25 µM stood at 53%.

Consider `Cc1cc2cc3n(c(=O)c2cc1C)COc1ccccc1-3` [Compound 10c], for which the inhibition at 25 µM with 3T3-L1 preadipocytes is 60.4%.

The compound `Cc1cccc2c(=O)n3c(cc12)-c1ccccc1NC3` [Compound 8b] returned a melting point of 226.5 to 228.1 °C. The inhibition at 25 µM in the series on 3T3-L1 preadipocytes came to 49%.

Consider `Cc1ccc2c(=O)n3c(cc2c1)-c1ccccc1OC3` [Compound 10b], for which, in the series on 3T3-L1 preadipocytes, the inhibition at 25 µM came to 25.7%.

`COc1ccc2c(=O)n3c(cc2c1)-c1cc(Cl)ccc1NC3` [Compound 8m] had a melting point of 203.9 to 205.2 °C. Besides, the inhibition at 25 µM with 3T3-L1 preadipocytes was determined as 28.1%.
